Experimental data: publication PMC5701174 (Scientific Reports, 2017)

Molecular target: T1, PlaA (rPlaA, Strep-PlaA) (Legionella pneumophila, UniProt A0A378KFD4)
T1 construct: gene NCTC12000_02489
Settings: 37 °C, 3 h; 25 ng protein in 50 µl; without ProA

T1 sequence (A0A378KFD4 20-309 limits assumed): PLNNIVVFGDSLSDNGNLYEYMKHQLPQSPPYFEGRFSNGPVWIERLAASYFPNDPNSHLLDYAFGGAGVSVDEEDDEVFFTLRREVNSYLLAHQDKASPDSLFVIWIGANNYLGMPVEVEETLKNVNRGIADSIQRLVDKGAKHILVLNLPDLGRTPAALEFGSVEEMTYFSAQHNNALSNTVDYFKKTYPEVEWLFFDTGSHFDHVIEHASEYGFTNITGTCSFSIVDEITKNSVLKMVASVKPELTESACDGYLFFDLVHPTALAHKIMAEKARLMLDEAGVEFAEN

| Structure (SMILES) | free fatty acid quantification |
| --- | --- |
| CCCCCCCCCCCCCCCC(=O)OC[C@@H](O)COP(=O)([O-])OCC[N+](C)(C)C [LPC, 1-monopalmitoyllyso-phosphatidylcholine] | rPlaA possessed lipase and LPLA activities, the latter especially towards LPG and LPC |
| CCCCCCCCCCCCCCCC(=O)OC[C@@H](O)COP(=O)(O)OCC(O)CO (some centres unmarked) [LPG, 1-mono-palmitoyllysophosphatidylglycerol] | rPlaA possessed lipase and LPLA activities, the latter especially towards LPG and LPC |
